Data from patent US20210369720A1, “SYNERGISTIC COMPOSITION HAVING NEUROPROTECTIVE PROPERTIES AND METHODS OF USE THEREOF” (Rutgers, The State University of New Jersey, priority 2018, published 2021).

Experiments:
[1] = system: Tyrosine hydroxylase (TH); assay: Striatal TH staining, α-Syn PFF inoculated WT mice; format: in vivo; conditions: EHT 12 mg/kg/day and/or caffeine 50 mg/kg/day, vs untreated α-Syn PFF inoculated mice
Description: (§1) Thy1-α-synuclein transgenic mice (Syn^Tg) on BDF1 background overexpressing human wild-type α-synuclein under the control of the Thy1 promoter were maintained by mating heterozygous transgenic females with WT BDF1 males (Rockenstein E, et al. (2002) Differential neuropathological alterations in transgenic mice expressing alpha-synuclein from the platelet-derived growth factor and Thy-1 promoters. J Neurosci Res 68(5):568-578). BDF1 mice (mixed C57BL/6-DBA/2) were generated every three months by mating female C57BL/6 (The Jackson Laboratory) and male DBA/2 mice (Charles River). Experiments were performed with male transgenic mice and their WT littermates. […] Wild-type littermates received regular water and control chow. […] At two months of age, mice were inoculated with α-Syn PFF unilaterally in the striatum. These treatments continued throughout the experiment until animals were sacrificed. Mice were weighed and their food and water intake was quantified weekly. Animals were housed 2-5/cage in an AAALAC approved facility in a temperature- and humidity-controlled environment under a 12-hour light/dark cycle and were maintained on a diet of lab chow and water ad libitum. […]

PP2A [2] = assay: Western blot of PP2A methylation, striatal tissue lysates of Syn^Tg mice; format: in vivo; conditions: EHT 12 mg/kg/day and/or caffeine 50 mg/kg/day
Description: Thy1-α-synuclein transgenic mice (Syn^Tg) on BDF1 background overexpressing human wild-type α-synuclein under the control of the Thy1 promoter were maintained by mating heterozygous transgenic females with WT BDF1 males (Rockenstein E, et al. (2002) Differential neuropathological alterations in transgenic mice expressing alpha-synuclein from the platelet-derived growth factor and Thy-1 promoters. J Neurosci Res 68(5):568-578). BDF1 mice (mixed C57BL/6-DBA/2) were generated every three months by mating female C57BL/6 (The Jackson Laboratory) and male DBA/2 mice (Charles River). Experiments were performed with male transgenic mice and their WT littermates. […] Wild-type littermates received regular water and control chow. […] At two months of age, mice were inoculated with α-Syn PFF unilaterally in the striatum. These treatments continued throughout the experiment until animals were sacrificed. Mice were weighed and their food and water intake was quantified weekly. Animals were housed 2-5/cage in an AAALAC approved facility in a temperature- and humidity-controlled environment under a 12-hour light/dark cycle and were maintained on a diet of lab chow and water ad libitum. All animal procedures were approved by the Rutgers-Robert Wood Johnson Medical School Institutional Animal Care and Use Committee and were performed according to the National Institutes of Health Guide for the Care and Use of Laboratory Animals.
(§2) Human neuroblastoma SH-SY5Y cells were cultured in DMEM-F12 with 10% FBS. At 50% confluency, cells were treated with 1 gg/ml mouse α-Syn PFF in DMEM-F12 with 1% FBS for 7 days. Medium was refreshed every 3 days. Cell harvesting was done with 2% SDS in PBS supplemented with protease inhibitor (Millipore) and phosphatase inhibitor (Sigma-Aldrich). Lysates were sonicated and boiled at 95° C. for 5 minutes. Protein concentration was determined by bicinchonic acid (BCA) method (Pierce), equal amount of protein was separated on 5-20% SDS-PAGE gel (Genescript) and transferred to nitrocellulose or PVDF membrane (Biorad). Following transfer, membranes were blocked for 1 hour at room temperature in blocking buffer (Li-Cor) or 5% (w/v) BSA/TBS-Tween 0.1% (v/v). Primary antibodies were diluted in blocking buffer or 5% (w/v) BSA/TBS-Tween 0.1% (v/v) and incubated with the membranes at 4° C. overnight. Membranes were washed three times in TBS-Tween and incubated in diluted IRDye 800CW or HRP conjugated secondary antibody for 1 hour at room temperature. Following washing, membranes were scanned by Li-Cor Odyssey CLx infrared imaging system or treated with the Western Lightning ECL-plus reagents (PerkinElmer) and exposed to autoradiography films (LabScientific).

PP2A [3] = assay: Western blot of PP2A methylation in SH-SY5Y cells challenged with α-Syn PFF; format: cell-based, Human; conditions: SH-SY5Y cells challenged with mouse α-Syn PFF for 7 days; caffeine and/or EHT added to the medium
Experimental: as §2

Syn^Tg mice = assay: Morris Water Maze, Syn^Tg mice; format: in vivo; conditions: EHT 12 mg/kg/day in chow and/or caffeine 50 mg/kg/day in drinking water from weaning until six months of age, vs untreated Syn^Tg mice
Description: as §1

SH-SY5Y cells = assay: Cytotoxicity of α-Syn PFF by propidium iodide (PI) exclusion in SH-SY5Y cells; format: cell-based, Human; conditions: SH-SY5Y cells challenged with mouse α-Syn PFF for seven days; vs untreated α-Syn PFF-challenged cells (2.5 fold increase of PI positive cells)
[4] = biological target: T1, PP2A methylesterase (PME-1) (Homo sapiens, UniProt Q9Y570); conditions: cited from earlier work
T1 sequence (Q9Y570 1-386): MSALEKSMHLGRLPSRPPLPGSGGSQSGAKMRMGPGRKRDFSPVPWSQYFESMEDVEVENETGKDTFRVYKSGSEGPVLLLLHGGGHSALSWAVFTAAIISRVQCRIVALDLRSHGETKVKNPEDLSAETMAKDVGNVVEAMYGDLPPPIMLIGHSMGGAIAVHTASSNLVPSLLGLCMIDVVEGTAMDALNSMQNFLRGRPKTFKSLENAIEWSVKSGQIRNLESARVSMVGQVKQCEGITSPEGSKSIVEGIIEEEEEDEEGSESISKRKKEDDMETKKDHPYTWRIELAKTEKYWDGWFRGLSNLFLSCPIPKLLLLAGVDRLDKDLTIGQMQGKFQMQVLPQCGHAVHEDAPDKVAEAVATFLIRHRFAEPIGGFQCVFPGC

CCCCCCCCCCCCCCCCCCCC(=O)NCCc1c[nH]c2ccc(O)cc12 [EHT, eicosanoyl-5-hydroxytryptamide]
TH staining of dopaminergic terminals in the striatum (ipsilateral and contralateral) [1]: non-significant increase
ratio between methyl- and demethyl-PP2A (PP2A [2]): did not change
Demethylated PP2A (demethyl-PP2A) levels (PP2A [2]; normalized to total PP2A): not affected
Methylated PP2A (Methyl-PP2A) levels (PP2A [2]; normalized to total PP2A): did not change
demethylated PP2A levels (PP2A [3]): partially reversed this trend
methyl- to demethyl-PP2A ratio (PP2A [3]): not individually
methylated PP2A levels (PP2A [3]): partially reversed this trend
performance on the Morris Water Maze (Syn^Tg mice): did not improve performance
cytotoxicity of α-Syn PFF, number of PI positive cells (cell viability) (SH-SY5Y cells): modestly protected
inhibition of the activity of the PP2A methylesterase (PME-1) [4]: inhibit the activity
